Reference: patent US9845291B2, “Estrogen receptor modulators and uses thereof” (Genentech, Inc., priority 2014, dated 2017)

Molecular target: estrogen receptor alpha (ESR1) (Homo sapiens, UniProt P03372)
Experiment: cell-based
Conditions: for ER-alpha MCF7 HCS Sinf: MCF7 breast cancer cells, 4 hours, plateau of the maximal effect, DMSO and Fulvestrant define 0% and 100% changes in ESR1
Description: Where more than one name is associated with a Formula I compound or intermediate, the chemical structure shall define the compound.
Cell plates were incubated at 37° C., for 4 hours. Fixation and permeabilization were carried out using a Biotek EL406 plate washer and dispenser as follows. […] Samples were incubated 30 minutes. Well contents was aspirated and 50 ul/well of Phosphate Buffered Saline (PBS) containing 0.5% w/v bovine serum albumen, 0.5% v/v Triton X-100 (Antibody Dilution Buffer) was added to each well. Samples were incubated for 30 minutes. Well contents were aspirated and washed 3 times with 100 ul/well of PBS. Immunofluorescence staining of estrogen receptor alpha (ESR1) was carried out using a Biotek EL406 plate washer and dispenser as follows. […] Samples were incubated for 2 hours at room temperature. Samples were washed 4 times with 100 ul/well of PBS. […] Samples were incubated for 2 hours at room temperature. Samples were washed 3 times with 100 ul/well of PBS using a Biotek EL406. Quantitative fluorescence imaging of ESR1 was carried out using a Cellomics Arrayscan V (Thermo). […] Channel 1 (DNA stain) was used to define the nuclear region (Circ). […] Data analysis was carried out using Genedata Screener Software, with DMSO and 5 nM Fulvestrant treated samples being used to define the 0% and 100% changes in ESR1. The “Robust Fit” method was used to define the inflexion point of curve (EC50) and the plateau of the maximal effect (Sin f).

Sequence of estrogen receptor alpha (ESR1) (P03372 whole entry): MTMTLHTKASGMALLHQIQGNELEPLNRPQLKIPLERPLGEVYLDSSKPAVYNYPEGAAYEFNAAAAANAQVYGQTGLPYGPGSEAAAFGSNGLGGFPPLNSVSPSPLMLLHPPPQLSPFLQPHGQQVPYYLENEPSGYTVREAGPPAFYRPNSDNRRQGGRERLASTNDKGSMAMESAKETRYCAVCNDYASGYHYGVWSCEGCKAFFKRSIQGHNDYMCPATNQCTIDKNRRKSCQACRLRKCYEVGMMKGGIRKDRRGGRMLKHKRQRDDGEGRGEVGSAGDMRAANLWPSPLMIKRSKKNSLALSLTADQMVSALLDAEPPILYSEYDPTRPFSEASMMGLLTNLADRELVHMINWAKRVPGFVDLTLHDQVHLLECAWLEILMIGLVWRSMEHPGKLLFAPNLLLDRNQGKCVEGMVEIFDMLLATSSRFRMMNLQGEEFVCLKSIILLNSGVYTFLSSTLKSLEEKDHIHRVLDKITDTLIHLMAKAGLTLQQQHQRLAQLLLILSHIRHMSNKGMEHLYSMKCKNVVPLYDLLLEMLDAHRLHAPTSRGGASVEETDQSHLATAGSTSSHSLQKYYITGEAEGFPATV

Compound | EC50 [nM] | ER-alpha MCF7 HCS Sinf [%]
Oc1ccc(C(=C2CCCCC2)c2ccc(OCCN3CC(CF)C3)cc2)cc1 [Example 18, 4-(Cyclohexylidene-{4-[2-(3-fluoromethyl-azetidin-1-yl)-ethoxy]-phenyl}-methyl)-phenol] | 12 | −89
Cc1c(-c2ccc(O)cc2)n(Cc2ccc(OC[C@H](C)N3CC[C@@H](CF)C3)cc2)c2ccc(O)cc12 [Example 2, 1-(4-((S)-2-((R)-3-(Fluoromethyl)pyrrolidin-1-yl)propoxy)benzyl)-2-(4-hydroxyphenyl)-3-methyl-1H-indol-5-ol] | 1.6 | −93
Cc1cc(O)ccc1-c1c(C)c2cc(O)ccc2n1Cc1ccc(OCCN2CC(CF)C2)cc1 [Example 57, 1-[[4-[2-[3-(fluoromethyl)azetidin-1-yl]ethoxy]phenyl]methyl]-2-(4-hydroxy-2-methyl-phenyl)-3-methyl-indol-5-ol] | 0.0469 | −93.4
O=C(c1ccc(OCCN2CC(CF)C2)cc1)c1c(-c2ccc(F)c(Cl)c2)sc2cc(O)ccc12 [Example 37, (2-(3-chloro-4-fluorophenyl)-6-hydroxybenzo[b]thiophen-3-yl)(4-(2-(3-(fluoromethyl)azetidin-1-yl)ethoxy)phenyl)methanone] | 4.4 | −97
Cn1c(-c2ccc(O)cc2)c(C(=O)c2ccc(OCCN3CC(CF)C3)cc2)c2ccc(O)cc21 [Example 6, (4-(2-(3-(Fluoromethyl)azetidin-1-yl)ethoxy)phenyl)(6-hydroxy-2-(4-hydroxyphenyl)-1-methyl-1H-indol-3-yl)methanone] | 550 | −50
Oc1cccc([C@H]2Sc3c(ccc(O)c3F)O[C@H]2c2ccc(OCCN3CC(CF)C3)cc2)c1 [Example 58, (2S,3R)-5-fluoro-2-(4-(2-(3-(fluoromethyl)azetidin-1-yl)ethoxy)phenyl)-3-(3-hydroxyphenyl)-2,3-dihydrobenzo[b][1,4]oxathiin-6-ol] | 0.026 | −99.8
Oc1ccc2c(c1)C1=C(c3cc(O)ccc3OCC1)[C@@H](c1ccc(OCCN3CC(CF)C3)cc1)O2 [Example 75, (R)-8-(4-(2-(3-(fluoromethyl)azetidin-1-yl)ethoxy)phenyl)-1,8-dihydro-2H-benzo[2,3]oxepino[4,5-c]chromene-6,12-diol] | 3.2 | −99.7
O=C(c1ccc(OCCN2CC(CF)C2)cc1)c1c(-c2ccc(F)c(F)c2)sc2cc(O)ccc12 [Example 35, (2-(3,4-difluorophenyl)-6-hydroxybenzo[b]thiophen-3-yl)(4-(2-(3-(fluoromethyl)azetidin-1-yl)ethoxy)phenyl)methanone] | 0.55 | −98
O=C(c1ccc(OCCN2CC[C@@H](CF)C2)c(F)c1)c1c(-c2ccccc2Cl)noc1-c1ccc(O)cc1 [Example 73, [3-(2-chlorophenyl)-5-(4-hydroxyphenyl)isoxazol-4-yl]-[3-fluoro-4-[2-[(3R)-3-(fluoromethyl)pyrrolidin-1-yl]ethoxy]phenyl]methanone] | 0.123 | −97.6
C[C@@H](COc1ccc(C(=O)c2c(-c3ccccc3Cl)noc2-c2ccc(O)cc2)cc1F)N1CC[C@@H](CF)C1 [Example 76, [3-(2-chlorophenyl)-5-(4-hydroxyphenyl)isoxazol-4-yl]-[3-fluoro-4-[(2S)-2-[(3R)-3-(fluoromethyl)pyrrolidin-1-yl]propoxy]phenyl]methanone] | 0.091 | −101
Oc1ccc(-c2snc(-c3ccccc3Cl)c2-c2ccc(OCCN3CC(CF)C3)c(F)c2)cc1 [Example 16, 4-(3-(2-Chloro-phenyl)-4-{3-fluoro-4-[2-(3-fluoromethyl-azetidin-1-yl)-ethoxy]-phenyl}-isothiazol-5-yl)-phenol] |  | −99.2
Cc1c(-c2ccc(O)cc2Cl)n(Cc2ccc(OC[C@H](C)N3CC[C@@H](CF)C3)cc2)c2ccc(O)cc12 [Example 56, 2-(2-chloro-4-hydroxyphenyl)-1-(4-((S)-2-((R)-3-(fluoromethyl)pyrrolidin-1-yl)propoxy)benzyl)-3-methyl-1H-indol-5-ol] | 0.0285 | −95.6
CC/C(=C(\c1ccccc1)c1ccc(OCCN2CC(CF)C2)cc1)c1ccccc1 [Example 21, (Z)-1-(2-(4-(1,2-Diphenylbut-1-en-1-yl)phenoxy)ethyl)-3-(fluoromethyl)azetidine] | 11 | −97
O=C(C1=C(c2ccc(O)cc2)CCc2cc(O)ccc21)c1ccc(OCCN2CC(CF)C2)cc1 [Example 32, (4-(2-(3-(Fluoromethyl)azetidin-1-yl)ethoxy)phenyl)(6-hydroxy-2-(4-hydroxyphenyl)-3,4-dihydronaphthalen-1-yl)methanone] | 0.19 | −101
